Laboratory results reported in ChEMBL document CHEMBL1150710, “Cytotoxic steroids of Gelsemium sempervirens” (1987).
In brackets after ≈: the same amount, converted by molar mass. Activity calls are given as the source filed them. The rule behind the calls is not given here.

How the values were obtained:
P388 = experiment: Cytotoxicity against mouse P388 cells; type: functional; conditions: for EC50: read-out: ED50 (the source's name)
KB = experiment: Cytotoxicity against human KB cells; type: functional; conditions: for EC50: read-out: ED50 (the source's name)

Row | SMILES | EC50 (P388) [µg/mL] | EC50 (KB) [µg/mL] | ED50 (P388) | ED50 (KB)
1 | CC(=O)C1=CC[C@H]2[C@@H]3CC[C@H]4CC(=O)CC[C@]4(C)[C@H]3C[C@@H](O)[C@]12C | 0.9 (≈ 2.72 µM) | 0.7 (≈ 2.12 µM) |  | 
2 | C/C=C1\CN2[C@H]3C[C@H]1[C@H](CO)[C@@H]2Cc1c3[nH]c2ccccc12 |  |  | inactive | inactive
3 | C=C[C@]12C(=O)N(C)[C@@H]3[C@H]4CO[C@H](C[C@H]41)[C@]1(C(=O)Nc4ccccc41)[C@@H]32 |  |  | inactive | inactive
4 | CC(=O)C1=CC[C@H]2[C@@H]3CCC4=CC(=O)CC[C@]4(C)[C@H]3C[C@@H](O)[C@]12C | 2.8 (≈ 8.52 µM) | 2 (≈ 6.09 µM) |  | 
5 | CCC1=N[C@H]2C[C@@]3(C(=O)N(OC)c4ccccc43)[C@H]3C[C@@H]1[C@@H]2CO3 |  |  | inactive | inactive
6 | CC[C@H]1N[C@H]2C[C@@]3(C(=O)N(OC)c4ccccc43)[C@H]3C[C@@H]1[C@@H]2CO3 |  |  | inactive | inactive
7 | C[C@H]1[C@H](C)CC[C@]2(C(=O)O)CC[C@]3(C)C(=CC[C@@H]4[C@@]5(C)CC[C@H](O)C(C)(C)[C@@H]5CC[C@]43C)[C@H]12 |  |  | inactive | inactive
8 | C=C[C@]12CN(C)[C@@H]3[C@H]4CO[C@H](C[C@H]41)[C@]1(C(=O)N(OC)c4ccccc41)[C@@H]32 |  |  | inactive | inactive
9 | COc1cc2ccc(=O)oc2cc1O |  |  | inactive | inactive
10 | CC[C@H]1N[C@H]2C[C@@]3(C(=O)N(OC)c4ccccc43)[C@@H]3OC[C@H]2[C@H]1[C@@H]3O |  |  | inactive | inactive
11 | C/C=C1\CN(C)[C@H]2C[C@@]3(C(=O)N(OC)c4ccccc43)[C@H]3C[C@@H]1[C@@H]2CO3 |  |  | inactive | inactive
12 | C=C[C@]12CN(C)[C@@H]3[C@H]4CO[C@H](C[C@H]41)[C@]1(C(=O)Nc4ccccc41)[C@@H]32 |  |  | inactive | inactive
13 | CCC1=N[C@H]2C[C@@]3(C(=O)N(OC)c4ccccc43)[C@@H]3OC[C@H]2[C@H]1[C@@H]3O |  |  | inactive | inactive
